In patent publication US20260184663A1, “INDENE COMPOUNDS, PHARMACEUTICAL COMPOSITIONS THEREOF, AND THEIR THERAPEUTIC APPLICATIONS” (NucMito Pharmaceuticals co. Ltd., priority 2022, published 2026):
Read-outs that look alike come from different tables or passages of the source.

Assays:
Format in all cases: cell-based
[1] = test system: B16F10 (malignant melanoma); experiment: Antiproliferative activity (CCK-8 cell viability), B16F10; conditions: Mus musculus, 72 h, read-out: Antiproliferative activity in cancerous cells, B16F10 (inhibition of cell growth); for inhibition at 3.3 µM: B16-F10, Compound concentration: 3.3 μM; for inhibition at 10 µM: B16-F10, Compound concentration: 10 μM; for inhibition at 30 µM: B16-F10, Compound concentration: 30 μM
Summary of the method: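 Attached B16F10 cells in 96-well plates were incubated with compound at 37° C for 72 h, followed by 10 μL CCK-8 reagent per well and a further 4 h incubation. A multi-well plate reader measured absorbance at 450 nm. Percent viability across replicates was calculated against DMSO vehicle-treated cells.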

HepG2 (liver cancer) = experiment: Antiproliferative activity (CCK-8 cell viability), HepG2; conditions: Homo sapiens, 72 h, read-out: Antiproliferative activity in cancerous cells, HepG2 (inhibition of cell growth); for inhibition at 3.3 µM: Compound concentration: 3.3 μM; for inhibition at 10 µM: Compound concentration: 10 μM; for inhibition at 30 µM: Compound concentration: 30 μM
Summary of the method: (§1)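 Cells were seeded at 2,000-5,000/well (HeLa in MEM, HepG2 and SW480 in DMEM, A549 in F-12K, all with 10% FBS) and treated with compound at 3.3, 10 or 30 μM for 72 h at 37° C. CCK-8 was added for 4 h, absorbance was read at 450 nm, and viability was expressed relative to DMSO-treated wells.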

HeLa (cervical cancer) = experiment: Antiproliferative activity (CCK-8 cell viability), HeLa; conditions: Homo sapiens, 72 h, read-out: Antiproliferative activity in cancerous cells, HELA (inhibition of cell growth); for inhibition at 3.3 µM: Compound concentration: 3.3 μM; for inhibition at 10 µM: Compound concentration: 10 μM; for inhibition at 30 µM: Compound concentration: 30 μM
Summary of the method: as §1

SW480 (colon cancer) = experiment: Antiproliferative activity (CCK-8 cell viability), SW480; conditions: Homo sapiens, 72 h; for inhibition at 3.3 µM: Compound concentration: 3.3 μM; for inhibition at 10 µM: Compound concentration: 10 μM; for inhibition at 30 µM: Compound concentration: 30 μM
Summary of the method: as §1

[2] = test system: MDA-MB-231 (breast cancer); experiment: Antiproliferative activity (CCK-8 cell viability), MDA-MB-231; conditions: Homo sapiens, 72 h, read-out: Antiproliferative activity in cancerous cells, MDA-MB-231 (inhibition of cell growth); for inhibition at 3.3 µM: Compound concentration: 3.3 μM; for inhibition at 10 µM: Compound concentration: 10 μM; for inhibition at 30 µM: Compound concentration: 30 μM
Summary of the method: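 In this CCK-8 viability assay, MDA-MB-231 cells maintained in Dulbecco's modified Eagle's medium containing 10% fetal bovine serum were placed in 96-well plates (2,000-5,000 cells/well) and treated with compound for 72 h at 37° C. A 4 h incubation with 10 μL CCK-8 followed, plates were read at 450 nm, and viability was expressed against DMSO vehicle wells across replicates.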

[3] = test system: A549 (lung adenocarcinoma); experiment: Antiproliferative activity (CCK-8 cell viability), A549; conditions: Homo sapiens, 72 h; for inhibition at 3.3 µM: Compound concentration: 3.3 μM; for inhibition at 10 µM: Compound concentration: 10 μM; for inhibition at 30 µM: Compound concentration: 30 μM
Summary of the method: as §1

[4] = test system: A431 (epidermoid carcinoma); experiment: Antiproliferative activity (CCK-8 cell viability), A431; conditions: Homo sapiens, 72 h; for inhibition at 3.3 µM: A-431, Compound concentration: 3.3 μM; for inhibition at 10 µM: A-431, Compound concentration: 10 μM; for inhibition at 30 µM: A-431, Compound concentration: 30 μM
Summary of the method: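 Cell viability of compound-treated A431 cells was measured with a Cell Counting Kit-8. Each well received 10 μL of CCK-8 after 72 h of compound exposure, followed by 4 h incubation at 37° C. and a 450 nm plate-reader measurement. Percent viability was calculated relative to DMSO controls across replicates.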

[5] = read-out: Antiproliferative activity in cancerous cells, SW480 (inhibition of cell growth)
[6] = read-out: Antiproliferative activity in cancerous cells, A549 (inhibition of cell growth)
[7] = read-out: Antiproliferative activity in cancerous cells, A431 (inhibition of cell growth)

Row | SMILES | inhibition at 3.3 µM [1] [%] | inhibition at 10 µM [1] [%] | inhibition at 3.3 µM (HepG2 (liver cancer)) [%] | inhibition at 10 µM (HepG2 (liver cancer)) [%] | inhibition at 3.3 µM (HeLa (cervical cancer)) [%] | inhibition at 10 µM (HeLa (cervical cancer)) [%] | inhibition at 3.3 µM (SW480 (colon cancer); [5]) [%] | inhibition at 10 µM (SW480 (colon cancer); [5]) [%] | inhibition at 3.3 µM [2] [%] | inhibition at 10 µM [2] [%] | inhibition at 3.3 µM [3, 6] [%] | inhibition at 10 µM [3, 6] [%] | inhibition at 3.3 µM [4, 7] [%] | inhibition at 10 µM [4, 7] [%] | inhibition at 30 µM [1] [%] | inhibition at 30 µM (HepG2 (liver cancer)) [%] | inhibition at 30 µM (HeLa (cervical cancer)) [%] | inhibition at 30 µM (SW480 (colon cancer); [5]) [%] | inhibition at 30 µM [2] [%] | inhibition at 30 µM [3, 6] [%] | further results
1 | COc1cc(COCc2ccc(/C=C3/C(C)=C(CC(=O)O)c4cc(F)ccc43)cc2)ccc1F [B113, (Z)-2-(5-Fluoro-1-(4-(((4-fluoro-3-methoxybenzyl)oxy)methyl)benzylidene)-2-methyl-1H-inden-3-yl)acetic acid] | < 30 | < 30 | < 30 | < 30 | < 30 | ≥ 50 | < 30 | ≥ 50 | 30 to 50 | ≥ 50 | 30 to 50 | ≥ 50 | ≥ 50 | ≥ 50 |  |  |  |  |  |  | 
2 | CC1=C(CC(=O)O)c2cc(Br)ccc2/C1=C/c1ccc(Oc2ccc(Cl)cc2)cc1 [E27, (E)-2-(5-Bromo-1-(4-(4-chlorophenoxy)benzylidene)-2-methyl-1H-inden-3-yl)acetic acid] | ≥ 50 | ≥ 50 | < 30 | ≥ 50 | ≥ 50 | ≥ 50 | < 30 | 30 to 50 | ≥ 50 | ≥ 50 | < 30 | ≥ 50 | ≥ 50 | ≥ 50 | ≥ 50 | ≥ 50 | ≥ 50 | ≥ 50 | ≥ 50 | ≥ 50 | inhibition at 30 µM [4, 7]: ≥ 50%
3 | CC1=C(CCOC(=O)N(C)N)c2cc(F)ccc2/C1=C\c1ccc(Oc2ccc(F)cc2)cc1 [A205, (Z)-2-(5-Fluoro-1-(4-(4-fluorophenoxy)benzylidene)-2-methyl-1H-inden-3-yl)ethyl 1-methylhydrazine-1-carboxylate] | < 30 | < 30 | 30 to 50 | ≥ 50 | 30 to 50 | ≥ 50 | < 30 | < 30 | < 30 | ≥ 50 | < 30 | < 30 | < 30 | < 30 |  |  |  |  |  |  | inhibition at 30 µM (SW480 (colon cancer); read-out: Antiproliferative activity in cancerous cells, SW480): 30 to 50%; inhibition at 30 µM ([3]; read-out: Antiproliferative activity in cancerous cells, A549): 30 to 50%; inhibition at 30 µM ([4]; read-out: Antiproliferative activity in cancerous cells, A431): 30 to 50%
4 | CC1=C(CC(=O)O)c2cc(F)ccc2/C1=C\c1ccc(Oc2ccc(Cl)cc2)cc1Cl [C59, (Z)-2-(1-(2-Chloro-4-(4-chlorophenoxy)benzylidene)-5-fluoro-2-methyl-1H-inden-3-yl)acetic acid] | < 30 | ≥ 50 | ≥ 50 | ≥ 50 | ≥ 50 | ≥ 50 | < 30 | ≥ 50 | < 30 | < 30 | 30 to 50 | ≥ 50 | ≥ 50 | ≥ 50 |  |  |  |  |  |  | 
5 | CC1=C(CC(=O)O)c2cc(F)ccc2/C1=C\c1cccc(Oc2ccc(I)cc2)c1 [C100, (Z)-2-(5-Fluoro-1-(3-(4-iodophenoxy)benzylidene)-2-methyl-1H-inden-3-yl)acetic acid] | < 30 | 30 to 50 | < 30 | ≥ 50 | < 30 | ≥ 50 | < 30 | < 30 | < 30 | < 30 | < 30 | 30 to 50 | < 30 | < 30 |  |  |  |  |  |  | 
6 | CC(=O)CC(=O)N1CCC(Oc2ccc(/C=C3/C(C)=C(CC(=O)O)c4cc(F)ccc43)cc2)CC1 [C203, (Z)-2-(5-Fluoro-2-methyl-1-(4-((1-(3-oxobutanoyl)piperidin-4-yl)oxy)-benzylidene)-1H-inden-3-yl)acetic acid] | < 30 | ≥ 50 | < 30 | < 30 | < 30 | < 30 | < 30 | < 30 | < 30 | < 30 | 30 to 50 | < 30 | ≥ 50 | ≥ 50 | ≥ 50 | < 30 | < 30 | < 30 | < 30 | < 30 | inhibition at 30 µM [4, 7]: ≥ 50%
7 | CC1=C(CC(=O)O)c2cc(F)ccc2/C1=C\c1ccc(C2(c3ccccc3)SCCS2)cc1 [C353, (Z)-2-(5-Fluoro-2-methyl-1-(4-(2-phenyl-1,3-dithiolan-2-yl)benzylidene)-1H-inden-3-yl)acetic acid] | < 30 | ≥ 50 | ≥ 50 | ≥ 50 | ≥ 50 | ≥ 50 | ≥ 50 | ≥ 50 | ≥ 50 | ≥ 50 | < 30 | ≥ 50 | ≥ 50 | ≥ 50 | ≥ 50 | ≥ 50 | ≥ 50 | ≥ 50 | ≥ 50 | ≥ 50 | inhibition at 30 µM [4, 7]: ≥ 50%
8 | CC1=C(CC(=O)O)c2cc(F)ccc2/C1=C\c1cccc(Sc2ccc(F)cc2)c1 [C42, (Z)-2-(5-Fluoro-1-(3-((4-fluorophenyl)thio)benzylidene)-2-methyl-1H-inden-3-yl)acetic acid] | 30 to 50 | ≥ 50 | < 30 | ≥ 50 | < 30 | ≥ 50 | < 30 | ≥ 50 | ≥ 50 | ≥ 50 | < 30 | ≥ 50 | < 30 | ≥ 50 |  |  |  |  |  |  | 
